Experimental data reported in ChEMBL document CHEMBL4196076, “An access to a library of novel triterpene derivatives with a promising pharmacological potential by Ugi and Passerini multicomponent reactions” (Eur J Med Chem, 2018).

Key:
[1] = system: A2780; test: Cytotoxicity against human A2780 cells after 96 hrs by sulforhodamine-B assay; assay type: functional, cell-based; settings: A2780, 96 h
[2] = system: NIH3T3; test: Cytotoxicity against mouse NIH/3T3 cells after 96 hrs by sulforhodamine-B assay; assay type: cell-based; settings: NIH3T3, 96 h
[3] = system: FaDu; test: Cytotoxicity against human FADU cells after 96 hrs by sulforhodamine-B assay; assay type: functional, cell-based
[4] = system: A549; test: Cytotoxicity against human A549 cells after 96 hrs by sulforhodamine-B assay; assay type: functional, cell-based; settings: A549, 96 h
[5] = system: HT-29; test: Cytotoxicity against human HT-29 cells after 96 hrs by sulforhodamine-B assay; assay type: functional, cell-based; settings: HT-29, 96 h
[6] = system: MCF7; test: Cytotoxicity against human MCF7 cells after 96 hrs by sulforhodamine-B assay; assay type: functional, cell-based; settings: MCF7, 96 h
[7] = system: 518A2; test: Cytotoxicity against human 518A2 cells after 96 hrs by sulforhodamine-B assay; assay type: functional, cell-based; settings: 518A2, 96 h

CC1(C)CC[C@]2(C(=O)N(CC(=O)NC(C)(C)C)Cc3ccoc3)CC[C@]3(C)C(=CC[C@@H]4[C@@]5(C)CC[C@H](O)C(C)(C)[C@@H]5CC[C@]43C)[C@@H]2C1 gave an EC50 [1] of 10 µM, an EC50 [2] of 11.8 µM and an EC50 [3] of 17.4 µM. The EC50 [4] was 18.9 µM, the EC50 [5] was 6.7 µM and the EC50 [6] was 4.1 µM. For the same compound, the EC50 [7] was 13.9 µM.
Work on CC(=O)O[C@H]1CC[C@]2(C)[C@H]3CC=C4[C@@H]5CC(C)(C)CC[C@]5(C(=O)OCC(=O)NC(C)(C)C)CC[C@@]4(C)[C@]3(C)CC[C@H]2C1(C)C yielded an EC50 [1] of 8.8 µM, an EC50 [2] of 20 µM and an EC50 [3] of 12.7 µM. For the same compound, the EC50 [4] was 13.2 µM, the EC50 [5] was 27.4 µM and the EC50 [6] was 12.9 µM. It also gave an EC50 [7] of 13.2 µM.
In the case of CC1(C)CC[C@]2(C(=O)N(CC(=O)NC(C)(C)C)Cc3cccc(F)c3)CC[C@]3(C)C(=CC[C@@H]4[C@@]5(C)CC[C@H](O)C(C)(C)[C@@H]5CC[C@]43C)[C@@H]2C1, the EC50 [1] is reported as > 30 µM, the EC50 [2] is reported as > 30 µM and the EC50 [3] is reported as > 30 µM. For the same compound, the EC50 [5] was > 30 µM, the EC50 [6] was > 30 µM and the EC50 [7] was > 30 µM.
In the case of CC(=O)O[C@H]1CC[C@]2(C)[C@H]3CC=C4[C@@H]5CC(C)(C)CC[C@]5(C(=O)N(CC(=O)NC(C)(C)C)Cc5ccoc5)CC[C@@]4(C)[C@]3(C)CC[C@H]2C1(C)C, the EC50 [1] is reported as 7.1 µM, the EC50 [2] is reported as > 30 µM and the EC50 [3] is reported as 29.1 µM. The EC50 [4] was 24.2 µM, the EC50 [5] was > 30 µM and the EC50 [6] was 19.8 µM. The EC50 [7] was 24.7 µM.
For CC(=O)O[C@H]1CC[C@]2(C)[C@H]3CC=C4[C@@H]5CC(C)(C)CC[C@]5(C(=O)N(CC(=O)NCc5ccccc5)C(C)C)CC[C@@]4(C)[C@]3(C)CC[C@H]2C1(C)C, the EC50 [1] was 8.3 µM, the EC50 [2] was 10.2 µM and the EC50 [3] was 10.1 µM. It also gave an EC50 [4] of 14.9 µM, an EC50 [5] of 14.1 µM and an EC50 [6] of 9.7 µM. The EC50 [7] was 20.9 µM.
In the case of CC(C)N(CC(=O)NCc1ccccc1)C(=O)[C@]12CCC(C)(C)C[C@H]1C1=CC[C@@H]3[C@@]4(C)CC[C@H](O)C(C)(C)[C@@H]4CC[C@@]3(C)[C@]1(C)CC2, the EC50 [1] is reported as 15.4 µM, the EC50 [2] is reported as > 30 µM and the EC50 [3] is reported as > 30 µM. The EC50 [5] was > 30 µM, the EC50 [6] was 19.4 µM and the EC50 [7] was > 30 µM.
CC(C)NC(=O)CN(Cc1ccoc1)C(=O)[C@]12CCC(C)(C)C[C@H]1C1=CC[C@@H]3[C@@]4(C)CC[C@H](O)C(C)(C)[C@@H]4CC[C@@]3(C)[C@]1(C)CC2 was tested, and the EC50 [1] was 5.9 µM, the EC50 [2] was 5.5 µM and the EC50 [3] was 7.9 µM. For the same compound, the EC50 [5] was 4.9 µM, the EC50 [6] was 4.9 µM and the EC50 [7] was 5.5 µM.
For CC(=O)O[C@H]1CC[C@]2(C)[C@H]3CC=C4[C@@H]5CC(C)(C)CC[C@]5(C(=O)N(CC(=O)NCc5ccccc5)Cc5ccccc5)CC[C@@]4(C)[C@]3(C)CC[C@H]2C1(C)C, the EC50 [1] was 5.4 µM, the EC50 [2] was > 30 µM and the EC50 [3] was 20.3 µM. For the same compound, the EC50 [4] was > 30 µM, the EC50 [5] was > 30 µM and the EC50 [6] was > 30 µM. For the same compound, the EC50 [7] was 13.5 µM.
With CC1(C)CC[C@]2(C(=O)N(CC(=O)NCc3ccccc3)Cc3ccoc3)CC[C@]3(C)C(=CC[C@@H]4[C@@]5(C)CC[C@H](O)C(C)(C)[C@@H]5CC[C@]43C)[C@@H]2C1 the EC50 [1] was 13.2 µM, the EC50 [2] was > 30 µM and the EC50 [3] was > 30 µM. For the same compound, the EC50 [4] was > 30 µM, the EC50 [5] was > 30 µM and the EC50 [6] was 12.6 µM. For the same compound, the EC50 [7] was > 30 µM.
For CC1(C)CC[C@]2(C(=O)N(CC(=O)NCc3ccccc3)Cc3ccccc3)CC[C@]3(C)C(=CC[C@@H]4[C@@]5(C)CC[C@H](O)C(C)(C)[C@@H]5CC[C@]43C)[C@@H]2C1, the EC50 [1] was > 30 µM, the EC50 [2] was > 30 µM and the EC50 [3] was > 30 µM. For the same compound, the EC50 [5] was > 30 µM, the EC50 [6] was > 30 µM and the EC50 [7] was > 30 µM.
In the case of CC(=O)O[C@H]1CC[C@]2(C)[C@H]3CC=C4[C@@H]5CC(C)(C)CC[C@]5(C(=O)N(C)CC(=O)NC(C)(C)C)CC[C@@]4(C)[C@]3(C)CC[C@H]2C1(C)C, the EC50 [1] is reported as 4.1 µM, the EC50 [2] is reported as 9.9 µM and the EC50 [3] is reported as 6.7 µM. For the same compound, the EC50 [5] was 23.7 µM, the EC50 [6] was 5.7 µM and the EC50 [7] was 8.8 µM.
For CC(=O)O[C@H]1CC[C@]2(C)[C@H]3CC=C4[C@@H]5CC(C)(C)CC[C@]5(C(=O)N(CC(=O)NCc5ccccc5)Cc5ccoc5)CC[C@@]4(C)[C@]3(C)CC[C@H]2C1(C)C, the EC50 [1] was 6.3 µM, the EC50 [2] was > 30 µM and the EC50 [3] was 22.1 µM. The EC50 [4] was > 30 µM, the EC50 [5] was > 30 µM and the EC50 [6] was 15 µM. It also gave an EC50 [7] of 15.9 µM.
C=CCN(CC(=O)NC(C)(C)C)C(=O)[C@]12CCC(C)(C)C[C@H]1C1=CC[C@@H]3[C@@]4(C)CC[C@H](O)C(C)(C)[C@@H]4CC[C@@]3(C)[C@]1(C)CC2 gave an EC50 [1] of 10.5 µM, an EC50 [2] of 15.5 µM and an EC50 [3] of 26 µM. The EC50 [4] was 27.7 µM, the EC50 [5] was 9.9 µM and the EC50 [6] was 7 µM. The EC50 [7] was 24.4 µM.
CC(=O)O[C@@H]1C[C@]2(C)[C@H]3CC=C4[C@@H]5CC(C)(C)CC[C@]5(C(=O)OCC(=O)NCc5ccccc5)CC[C@@]4(C)[C@]3(C)CC[C@H]2C(C)(C)[C@H]1OC(C)=O was tested, and the EC50 [1] was 1 µM, the EC50 [2] was 2 µM and the EC50 [3] was 7.3 µM. For the same compound, the EC50 [4] was 3.2 µM, the EC50 [5] was 4.9 µM and the EC50 [6] was 3.6 µM. It also gave an EC50 [7] of 4.3 µM.
